# Measurements from patent US6603057B1, “Heterogenous and homogeneous mouse variants lacking sno gene” (Japan Science and Technology Corporation, priority 1999, dated 2003).
# System: wild type and sno^+/− mice
# Test: Tumor susceptibility: survival after weekly carcinogen DMBA treatment
# Format: in vivo, mouse
# Details: DMBA weekly to dorsal surface, observation period of 80 days
# Protocol: In the next experiment, in order to compare the tumor susceptibility of wild type and sno^+/− mice, the carcinogen 9,10-dimethyl-1,2-benzanthracene (DMBA) was administered every week. […] The major tumor type observed was malignant lymphomas, and fibromas were also found at a lower frequency. Lymphomas in sno^+/− mice were aggressive metastatic malignancies, and generated tumors in the thymus glands [refer to FIGS. 4(b) and (c)]. The fact that these originated from T-cells is due to the tumor cells homogeneously expressing the TCRαβ markers, but not the IgM marker [refer to FIGS. 4(d) and (e)].
# DMBA treatments were initiated from the beginning at postnatal day 2-5 and continuing weekly thereafter by administering 50 μl of a solution containing DMBA 1.25 mg per ml acetone to the dorsal surface. Mice were monitored regularly and killed when overall health condition was deteriorated.
# At first, 8-10 mice in each cohort were used for collecting histopathological informations, subsequently, the site of tumor and the site of metastatic organ were detected and specified by detailed pathological analysis.
smiles,measurement,setting,value
"Cc1c2ccccc2c(C)c2c1ccc1ccccc12 [DMBA, 9,10-dimethyl-1,2-benzanthracene]",survived this treatment,sno^+/− female mice (n=20),30%
same,survived this treatment,sno^+/− male mice (n=20),50%
same,survival under this treatment,wild-type mice (n=40),most of the wild-type mice (n=40) survived
